Source: US12721832B2, “Anti-senescence plant polyphenol drug downregulating senescence-related secretory phenotype and use thereof” (BYHEALTH CO., LTD., priority 2021, dated 2026)

What was measured:
senescent PSC27 cells = assay: Caspase 3/7 activity / drug-induced apoptosis in senescent cells; type: cell-based, human; details: QVD-OPh, 50 μM PCC1
Method: PSC27 cells gradually entered the senescent stage after being treated with BLEO for 12 hours under culture conditions. 50 μM PCC1 was added to the medium of senescent cells starting from day 7, NucLight Rapid Red reagent was used to label the cells, and caspase 3/7 reagent (IncuCyte) was used for apoptosis detection. Caspase 3/7 activity was detected every 4 hours (n=3).
Statistical differences are obtained by two-way ANOVA (Turkey' test).
PSC27 cells were plated in a 96-well dish, and the cells were induced to senescence under the treatment of 50 μg/mL BLEO. PCC1 and ABT263 were added at concentrations of 50 μM and 1.0 μM, respectively. Cell culture medium was supplemented with Incucyte Nuclight fast Red Reagent (Essen Bioscience) and Incucyte C-3/7 Apoptosis Reagent (Essen Bioscience). Representative field of view was selected to take pictures.

[1] = test system: PC3/PSC27 xenograft tumors; assay: PC3/PSC27 xenograft tumor terminal volume in NOD/SCID mice; type: in vivo; details: for tumor volume, drug used alone: chemotherapeutic drug alone; for tumor volume, drug administered together with PCC1: chemotherapeutic drug combined with PCC1, end of 8th week
From the text: Every two weeks was a dosing cycle, and MIT (mitoxantrone) was intraperitoneally administered to the mice on the first day of the 3rd/5th/7th weeks. From the first day of the 5th week, the mice were intraperitoneally administrated with PCC1, once a week. After the 8-week course of treatment, the mice were dissected for pathological identification and expression analysis.
Chemotherapeutic drug MIT alone or together with anti-senescence drug PCC1 was used to administer mice, and after the 8th week, the tumor size of each group was compared and analyzed.
All experimental mouse experiments were carried out in strict accordance with the relevant regulations of the Institutional Animal Care and Use Committee (IACUC), Shanghai Institutes for Biological Sciences, Chinese Academy of Sciences. Immunodeficient mice (NOD-SCID mice, ICR) (body weight about 25 g) aged 6-8 weeks were used for animal experiments related to the present patent. Stromal cells PSC27 and epithelial cells PC3 were mixed at a predetermined ratio of 1:4, and each graft contained 1.25×10^6 cells for tissue remodeling. The xenograft tumors were implanted into mice by subcutaneous transplantation, and the animals were euthanized 8 weeks after the end of the transplantation surgery. Tumor volume was calculated according to the following formula: V=(π/6)×[…] (V, volume; l, length; w, width).
(§1) In a preclinical treatment trial, subcutaneously transplanted mice were fed with a standard experimental diet, after 2 weeks chemotherapy drugs mitoxantrone (MIT, dose: 0.2 mg/kg) and/or procyanidin C1 (PCC1) (500 μl, dose: 10 mg/kg) via intraperitoneal administration. The time points were: the former was administrated on the first day of the 3rd, 5th and 7th weeks, and the latter was administrated on the first day of the 5th and 7th weeks. A total of 3 cycles of MIT administration were carried out throughout the course of treatment, and each cycle lasted for 2 weeks. After the course of treatment, mouse tumors were harvested for volume measurement and histological analysis. Each mouse cumulatively received 0.6 mg/kg body weight of MIT and […] body weight of PCC1. In order to cause systemic expression of SASP factor induced by chemotherapy, MIT was administered to mice through […] according to the above steps and sequence, but the dose was reduced to 0.1 mg/kg body weight/each time (the cumulative dose of MIT received in the whole course of treatment was 0.3 mg/kg body weight) to reduce drug-related toxicity. The chemotherapy experiment ended at the end of the 8th week, and the mice were dissected immediately after sacrifice, and the xenograft tumors were collected and used for pathological system analysis.

[2] = test system: IMR90 fetal lung fibroblast-like cell lines; details: culture-adapted; cited from earlier work
[3] = test system: senescent human preadipocytes; details: cited from earlier work
[4] = test system: senescent primary human lung fibroblasts; details: cited from earlier work
HUVECs = details: cited from earlier work
SASP factors = assay: LCM and qRT-PCR of SASP factors in mouse lesions; type: in vivo, mice; details: MIT, mainly in stromal cells
Method: The stromal cells and cancer cells were specifically separated by LCM technology, total RNA was prepared and used for SASP expression detection. A P>0.05; *, P<0.05; **, P<0.01; ***, P<0.001.
as §1, with “The chemotherapy experiment ended at the end of the 8th week, and the mice were dissected immediately after sacrifice, and the xenograft tumors were collected and used for pathological system analysis.” left out

[5] = test system: cancer cells in the lesion; assay: DNA damage and apoptosis in tumor lesions (LCM, caspase 3 cleavage IHC); type: in vivo, mice; details: single agent vs placebo, 7 days after first PCC1 administration
From the text: The signals of Caspase 3 cleaved […] in the lesion of each group of mice were in sharp contrast. Scale bar, 200 μm.
To investigate mechanisms directly supporting this senescence-associated pattern with expression and reversal of SASP in MIT-administered mice, we dissected tumors in animals treated with both drugs 7 days after the first PCC1 administration, and the time point of 7 days after administration was selected mainly because drug-resistant clones had not yet formed in cancer cells in the lesion at this time. […] As supporting evidence, when PCC1 was applied during treatment, caspase 3 cleavage activity was increased, which was a typical hallmark of apoptosis (FIG. 29).

[6] = test system: senescent cells in tumor tissue; assay: SA-β-Gal staining of tumor tissue in PC3/PSC27 tumor-bearing mice; type: in vivo; details: MIT alone
Method: Representative pictures after SA-β-Gal staining. Scale bar, 100 μm.
A P>0.05; **, P<0.01; ***, P<0.001.
as §1, with “The chemotherapy experiment ended at the end of the 8th week, and the mice were dissected immediately after sacrifice, and the xenograft tumors were collected and used for pathological system analysis.” left out

PSC27 cells = assay: Bleomycin-induced senescence of PSC27 stromal cells (SA-β-Gal, BrdU, DDR foci staining); type: cell-based, human
Method: The primary normal human prostate stromal cell line PSC27 (obtained from Fred Hutchinson Cancer Research Center, USA) was cultured in an incubator at 37° C. and 5% CO2, and proliferated and passaged in PSCC complete culture medium.
To cause cell damage, 50 μg/mL bleomycin (BLEO) was added to the culture medium when PSC27 cells grew to 80% (abbreviated as […]). After 12 hours of drug treatment, the cells were simply washed 3 times with PBS, left in the culture medium for 7-10 days, and then the subsequent experiments were performed.
For immunofluorescent staining, target cells were preseeded on coverslips for at least 24 h after culture in dishes. After a brief wash, the cells were fixed with 4% paraformaldehyde in PBS for 8 min and blocked with 5% normal goat serum (NGS, Thermo Fisher) for 30 min. Mouse monoclonal antibody-anti-phospho-Histone H2A.X (Ser139) (clone JBW301, Millipore) and mouse monoclonal antibody-anti-BrdU (Cat# 347580, BD Biosciences), and secondary antibody Alexa Fluor® 488 (or 594)-Eurolink's F(ab')2 were sequentially added to the slides coated with the fixed cells. Nuclei were counterstained with 2 μg/m DAPI. The most representative image was selected from the three observation fields for data analysis and result display. FV1000 laser scanning confocal microscope (Olympus) was used to acquire confocal fluorescence images of cells.
Senescence-associated (3-galactosidase (SA-β-Gal) staining was performed following a previously reported procedure (Debacq-Chainiaux et al., 2009). Briefly, cells in culture dishes were washed with PBS and fixed at room temperature. Cells were fixed in 2% formaldehyde and 0.2% glutaraldehyde for 3 minutes. SA-β-Gal was used for staining with freshly prepared staining solution overnight at 37° C. Images were taken on the next day and the percentage of positive cells per unit area was calculated.

## CC(C)[C@H](NC(=O)c1ccc2ccccc2n1)C(=O)N[C@@H](CC(=O)O)C(=O)COc1c(F)cccc1F [QVD, reference compound]
Senescent PSC27 cells
  effect of pan-caspase inhibitor on senolytic activity of PCC1: could prevent the killing of senescent cells by PCC1

## CC(=O)O[C@@]12CO[C@@H]1C[C@H](O)[C@@]1(C)C(=O)[C@H](O)C3=C(C)[C@@H](OC(=O)[C@H](O)[C@@H](NC(=O)OC(C)(C)C)c4ccccc4)C[C@@](O)([C@@H](OC(=O)c4ccccc4)[C@H]21)C3(C)C [DOC, docetaxel]
[1]; end of 8th week
  tumor volume, drug used alone: could reduce the tumor volume
[1]
  tumor volume, drug administered together with PCC1: no further tumor shrinkage

## CC[C@]1(O)C[C@H]2CN(CCc3c([nH]c4ccccc34)[C@@](C(=O)OC)(c3cc4c(cc3OC)N(C=O)[C@H]3[C@@](O)(C(=O)OC)[C@H](OC(C)=O)[C@]5(CC)C=CCN6CC[C@]43[C@@H]65)C2)C1 [VIN, vincristine]
[1]; end of 8th week
  tumor volume, drug used alone: could reduce the tumor volume
[1]
  tumor volume, drug administered together with PCC1: no further tumor shrinkage

## CC1(C)CCC(c2ccc(Cl)cc2)=C(CN2CCN(c3ccc(C(=O)NS(=O)(=O)c4ccc(N[C@H](CCN5CCOCC5)CSc5ccccc5)c(S(=O)(=O)C(F)(F)F)c4)cc3)CC2)C1 [Navitoclax]
[2]
  ability to target senescent cells: can target and kill senescent cells
[3]
  ability to target senescent cells: not
[4]
  ability to target senescent cells: less effective
HUVECs
  ability to target senescent cells: able to target

## O=C1c2c(O)ccc(O)c2C(=O)c2c(NCCNCCO)ccc(NCCNCCO)c21 [MIT, mitoxantrone, reference compound]
SASP factors
  expression of SASP factors (IL6, CXCL8, SPINK1, WNT16B, GM-CSF, MMP3, IL1α) and p16INK4A in lesions: significantly elevated
[5]
  degree of DNA damage and apoptosis: significant increase
[6]
  senescent cells in tumor tissue: induced the appearance of a large number of senescent cells
[1]; single agent, i.p., end of 8th week
  reduction in tumor size compared to placebo: 44.0%

## bleomycin
PSC27 cells; PSC27, 50 μg/mL BLEO 12 h, 7-10 days later, vs CTRL
  positive rate of SA-β-Gal staining: significant increase
PSC27 cells; PSC27, BLEO treated vs CTRL
  BrdU incorporation rate: greatly reduced
  DNA damage repair foci (DDR foci): significantly increased

## COc1cccc2c1C(=O)c1c(O)c3c(c(O)c1C2=O)C[C@@](O)(C(=O)CO)C[C@@H]3O[C@H]1C[C@H](N)[C@H](O)[C@H](C)O1 [DOX, doxorubicin]
[1]
  tumor volume, drug administered together with PCC1: could roughly repeat the significant effect
